The results in this text go back to ChEMBL document CHEMBL1146353, “Synthesis of fluorescent molecular probes specific for the receptor of blepharismone, a mating-inducing pheromone of the ciliate Blepharisma japonicum” (2007).

Assay [1] relates to Blepharisma japonicum. Description: Inhibition of blepharismone-induced monotypic pairing of Blepharisma japonicum R1072 upto 1 mM. The format is functional.
In assay [2] the test system is Blepharisma japonicum. Description: Inhibition of blepharismone-induced monotypic pairing of Blepharisma japonicum R1072. The format is functional.

The structures appear in SMILES notation. Calls of active or inactive are those of the source. The rule behind the calls is not given here.

`CC(=O)c1ccccc1NC(=O)Cc1ccc(-c2ccccc2)cc1` gave an Inhibitory concentration in assay [1] of more than 1000 µM. Further, the outcome in assay [2] was inactive.

`O=C(Cc1ccc(-c2ccccc2)cc1)Nc1ccc(O)cc1C(=O)C[C@H](O)C(=O)O` showed an Inhibitory concentration in assay [1] of 4.8 µM.

As to `O=C(CCCc1ccc2ccc3cccc4ccc1c2c34)Nc1ccc(O)cc1C(=O)C[C@H](O)C(=O)O`, the Inhibitory concentration in assay [1] came out at 4 µM.

For `CC(=O)c1ccccc1NC(=O)CCCc1ccc2ccc3cccc4ccc1c2c34`, in assay [1], the Inhibitory concentration was more than 1000 µM. Moreover, in assay [2], the result was inactive.
